Our source for the EC50 values is patent publication US20060045953A1 (priority 2004, published 2006).

The structures appear in SMILES notation. Where two headings read alike, the source gives them in different places.

For the assay, the target named is T1, hT1R1/hT1R3 umami receptor (Homo sapiens, UniProt Q7RTX0+Q7RTX1).
T1 construct: expressed in transfected cells; host or cells: HEK293 derivative stably expressing Gα15, clone I-17, expression induced with mifepristone
T1 sequence (Q7RTX1 21-841): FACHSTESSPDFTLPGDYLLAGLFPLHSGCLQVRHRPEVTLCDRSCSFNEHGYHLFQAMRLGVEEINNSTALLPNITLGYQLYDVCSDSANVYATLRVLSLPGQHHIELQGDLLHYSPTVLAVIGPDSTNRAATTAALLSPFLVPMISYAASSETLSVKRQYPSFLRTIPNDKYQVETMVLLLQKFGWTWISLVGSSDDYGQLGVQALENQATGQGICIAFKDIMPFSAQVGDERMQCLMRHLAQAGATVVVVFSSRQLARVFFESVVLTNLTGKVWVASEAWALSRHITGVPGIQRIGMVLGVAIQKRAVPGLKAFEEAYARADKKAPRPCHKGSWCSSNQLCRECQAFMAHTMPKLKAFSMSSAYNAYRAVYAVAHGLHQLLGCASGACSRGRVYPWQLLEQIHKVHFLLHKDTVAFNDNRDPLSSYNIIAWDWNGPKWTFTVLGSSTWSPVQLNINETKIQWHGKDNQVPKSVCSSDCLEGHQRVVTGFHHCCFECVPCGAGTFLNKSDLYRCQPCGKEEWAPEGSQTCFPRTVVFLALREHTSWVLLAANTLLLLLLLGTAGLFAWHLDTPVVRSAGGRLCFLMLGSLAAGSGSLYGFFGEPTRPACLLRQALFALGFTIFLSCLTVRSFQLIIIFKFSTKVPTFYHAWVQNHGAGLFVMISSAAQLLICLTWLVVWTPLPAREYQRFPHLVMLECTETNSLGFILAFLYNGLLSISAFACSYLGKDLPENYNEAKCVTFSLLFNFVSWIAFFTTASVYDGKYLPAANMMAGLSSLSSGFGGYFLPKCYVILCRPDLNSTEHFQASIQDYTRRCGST
T1 sequence (Q7RTX0 21-852): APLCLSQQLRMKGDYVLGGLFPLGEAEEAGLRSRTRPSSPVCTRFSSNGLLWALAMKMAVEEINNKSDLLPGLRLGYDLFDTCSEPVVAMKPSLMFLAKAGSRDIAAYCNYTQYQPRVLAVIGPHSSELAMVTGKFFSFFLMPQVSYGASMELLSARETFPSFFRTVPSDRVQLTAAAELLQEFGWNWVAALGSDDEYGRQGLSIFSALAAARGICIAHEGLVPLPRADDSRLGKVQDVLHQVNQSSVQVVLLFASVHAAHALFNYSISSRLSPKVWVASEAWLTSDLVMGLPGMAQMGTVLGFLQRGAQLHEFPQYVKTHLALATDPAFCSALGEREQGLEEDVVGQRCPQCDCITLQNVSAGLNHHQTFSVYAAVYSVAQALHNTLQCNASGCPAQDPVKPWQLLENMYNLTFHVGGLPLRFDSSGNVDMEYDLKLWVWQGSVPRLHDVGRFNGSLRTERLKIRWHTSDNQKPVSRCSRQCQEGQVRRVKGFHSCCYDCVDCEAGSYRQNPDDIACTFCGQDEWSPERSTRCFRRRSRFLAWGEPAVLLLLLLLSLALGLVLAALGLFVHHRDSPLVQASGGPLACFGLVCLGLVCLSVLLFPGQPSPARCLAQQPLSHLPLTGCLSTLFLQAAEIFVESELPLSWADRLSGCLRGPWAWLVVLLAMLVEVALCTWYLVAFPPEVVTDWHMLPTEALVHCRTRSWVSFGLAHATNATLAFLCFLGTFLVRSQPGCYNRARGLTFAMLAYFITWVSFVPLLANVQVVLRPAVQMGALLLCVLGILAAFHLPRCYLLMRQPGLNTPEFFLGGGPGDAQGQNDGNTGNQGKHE
Description: In vitro hT1R1/hT1R3 umami taste receptor activation assay (FLIPR, dose response). Type of assay: cell-based.

Where [1] appears, read: Table A, Umami Amides, read-out: Umami EC50.
[2] abbreviates: read-out: EC50 for activation of a hT1R1/hT1R3 umami receptor expressed in an HEK293 cell line.
[3] abbreviates: Table D, Umami Acrylamides, read-out: Umami EC50.

For the compound `COC(=O)[C@@H](CC(C)C)NC(=O)c1ccc(C)cc1` [Example A69, (R)-methyl 4-methyl-2-(4-methylbenzamido)pentanoate], the EC50 under setting [1] was 320 nM. For `CC(C)C[C@@H](NC(=O)c1ccc2c(c1)OCO2)C(=O)NCCc1cccnc1` [Example 15, (R)-N-(4-methyl-1-oxo-1-(2-(pyridin-3-yl)ethylamino)pentan-2-yl)benzo[d][1,3]dioxole-5-carboxamide], under setting [2], the EC50 was 1700 nM. On the same count and under the same terms, under `CCCC(NC(=O)c1ccc2c(c1)OCO2)C(C)C` (centres unmarked) [Example 3, N-(2-methylhexan-3-yl)benzo[d][1,3]dioxole-5-carboxamide] stands 610 nM. For `CC(CCc1ccccc1)NC(=O)c1ccc2c(c1)OCO2` (centres unmarked) [Example A48], under setting [1], the EC50 worked out at 1510 nM. In the case of `CCCC(CC(C)C)NC(=O)/C=C/c1ccc(OC)cc1` (centres unmarked) [Example 79, 3-(4-Methoxy-phenyl)-N-(3-methyl-1-propyl-butyl)-acrylamide], under setting [2], the EC50 came to 1840 nM. As to `CC(C)C[C@@H](NC(=O)c1ccc2c(c1)OCO2)C(=O)N(C)C` [Example 13, (R)-N-(1-(dimethylamino)-4-methyl-1-oxopentan-2-yl) benzo[d][1,3]dioxole-5-carboxamide], the EC50 under setting [2] amounted to 1060 nM. Still for that read-out and setting: under `CCCCC/C=C/C(=O)N[C@H](CC(C)C)C(=O)OC` [Example 78, (R,E)-methyl 4-methyl-2-oct-2-enamidopentanoate] stands 920 nM. Turning to `CCCC(CCC)NC(=O)c1ccc(OCC)c(C)c1` [Example 56, 4-ethoxy-N-(heptan-4-yl)-3-methylbenzamide], the EC50 under setting [2] was found to be 170 nM. Still for that read-out and setting: under `CCCC(CC(C)C)NC(=O)c1ccc2c(c1)OCO2` (centres unmarked) [Example 2, N-(2-methylheptan-4-yl)benzo[d][1,3]dioxole-5-carboxamide] stands 220 nM.

With `CCCC(CCC)NC(=O)c1coc2ccccc12` [Example A123, N-(heptan-4-yl)benzofuran-3-carboxamide], the EC50 under setting [1] stood at 510 nM.

For the compound `CCOC(=O)[C@H]1CCCC[C@H]1NC(=O)c1ccc(OC)c(Cl)c1` [Example A103, (1S,2R)-ethyl 2-(3-chloro-4-methoxybenzamido)cyclohexanecarboxylate], the EC50 under setting [1] came out at 1360 nM. Same read-out and setting: under `CCCC(CCC)NC(=O)c1cccc(C(F)(F)F)c1` [Example A70, N-(heptan-4-yl)-3-(trifluoromethyl)benzamide] stands 330 nM. On to `COC(=O)[C@@H](CC(C)C)NC(=O)c1ccc(C)c(SC)c1` [Example 49, (R)-methyl 4-methyl-2-(4-methyl-3-(methylthio)benzamido)pentanoate], for which the EC50 under setting [2] turned out to be 100 nM.

Take `CCC(NC(=O)c1cc2cc(OC)ccc2o1)C(C)C` (centres unmarked) [Example A16, 5-methoxy-N-(2-methylpentan-3-yl)benzofuran-2-carboxamide]: the EC50 under setting [1] is 1180 nM. Take `CCCC(CCC)NC(=O)/C=C/c1ccc(OC)cc1` [Example D5, (E)-N-(heptan-4-yl)-3-(4-methoxyphenyl)acrylamide]: the EC50 under setting [3] is 720 nM.

In the case of `COc1ccc([C@@H](C)NC(=O)c2ccc(OC)c(C)c2)cc1` [Example 117, 4-Methoxy-N-[1-(R)-(4-methoxy-phenyl)-ethyl]-3-methyl-benzamide], under setting [2], the EC50 was 2800 nM.

For the compound `CCCC(NC(=O)c1ccc(OC)c(C)c1)C(C)C` (centres unmarked) [Example A59, 4-methoxy-3-methyl-N-(2-methylhexan-3-yl)benzamide], under setting [1], the EC50 came to 200 nM. The same measure, in the same setting: under `CCCC(CCC)NC(=O)c1ccc2cc[nH]c2c1` [Example A35, N-(heptan-4-yl)-1H-indole-6-carboxamide] stands 820 nM.

Consider `CCCC(CCC)NC(=O)c1ccc(O)c(C)c1` [Example 58, 4-hydroxy-3-methyl-N-(1-propyl-butyl)-benzamide], for which, under setting [2], the EC50 was 920 nM. For the compound `CCCOc1ccc(C(=O)N[C@H](CC(C)C)C(=O)OC)cc1` [Example A82, (R)-methyl 4-methyl-2-(4-propoxybenzamido)pentanoate], the EC50 under setting [1] was found to be 510 nM. As for `C=Cc1ccccc1NC(=O)NC(CCC)CCC` [Example C30, 1-(heptan-4-yl)-3-(2-vinylphenyl)urea], the EC50 (Table C, Umami Ureas, read-out: Umami EC50) came out at 790 nM. As to `CCCC(CCC)NC(=O)c1cc(COC)c(CC)o1` [Example A117, 5-ethyl-N-(heptan-4-yl)-4-(methoxymethyl)furan-2-carboxamide], the EC50 under setting [1] was determined as 30 nM. The same measure, in the same setting: under `CCOc1ccc(C(=O)NC(CC)CC(C)C)cc1C` (centres unmarked) [Example A72, 4-ethoxy-3-methyl-N-(5-methylhexan-3-yl)benzamide] stands 340 nM. Regarding `COc1ccc(/C=C/C(=O)NC(C)CCc2ccccc2)cc1OC` (centres unmarked) [Example D16, (E)-3-(3,4-dimethoxyphenyl)-N-(4-phenylbutan-2-yl)acrylamide], under setting [3], the EC50 came to 1560 nM. `CCSc1ccc(C(=O)N[C@H](CC(C)C)C(=O)OC)cc1` [Example A60, (R)-methyl 2-(4-(ethylthio)benzamido)-4-methylpentanoate]: the EC50 under setting [1] stood at 200 nM.

As for `CCCC(CCC)NC(=O)c1cc2cc(OC)ccc2o1` [Example A10, N-(heptan-4-yl)-5-methoxybenzofuran-2-carboxamide], under setting [1], the EC50 was 910 nM. Same read-out and setting: under `COC(=O)[C@@H](CC(C)C)NC(=O)c1ccc2[nH]ccc2c1` [Example A36, (R)-methyl 2-(1H-indole-5-carboxamido)-4-methylpentanoate] stands 1010 nM. Consider `CCCC(CCC)NC(=O)/C=C/c1cccs1` [Example 77, (E)-N-(heptan-4-yl)-3-(thiophen-2-yl)acrylamide], for which, under setting [2], the EC50 was 440 nM. Same read-out and setting: under `COC(=O)[C@@H](CC(C)C)NC(=O)c1ccc(SC)cc1` [Example 50, (R)-methyl 4-methyl-2-(4-(methylthio)benzamido)pentanoate] stands 160 nM. For `CCCC(CCC)NC(=O)c1ccc(OC)cc1` [Example A79, N-(heptan-4-yl)-4-methoxybenzamide], the EC50 under setting [1] is 460 nM.

With `COc1ccc(/C=C/C(=O)NC(C(C)C)C(C)C)cc1` [Example D1, (E)-N-(2,4-dimethylpentan-3-yl)-3-(4-methoxyphenyl)acrylamide], under setting [3], the EC50 is 290 nM. Turning to `O=C(NCCc1ccccn1)C(=O)NCc1cccc2c1OCO2` [Example 149, N-(Benzo[d][1,3]dioxol-4-ylmethyl)-N′-(2-(pyridin-2-yl)ethyl)oxalamide], the EC50 under setting [2] turned out to be 170 nM. As for `COC(=O)[C@@H](CC(C)C)NC(=O)c1ccc2ccccc2c1` [Example A40, (R)-methyl 2-(2-naphthamido)-4-methylpentanoate], the EC50 under setting [1] was 370 nM. As to `CCCC(CCC)NC(=O)c1ccc(C)c(SC)c1` [Example 48, 4-methyl-3-methylsulfanyl-N-(1-propylbutyl)benzamide], the EC50 under setting [2] turned out to be 210 nM. Regarding `CCCC(CCC)NC(=O)c1ccc(C)nc1Cl` [Example 96, 2-chloro-N-(heptan-4-yl)-6-methylnicotinamide], under setting [2], the EC50 turned out to be 3900 nM. On to `CCCC(CC)NC(=O)c1ccc(OC)c(C)c1` (centres unmarked) [Example 12, N-(hexan-3-yl)-4-methoxy-3-methylbenzamide], for which the EC50 under setting [2] was found to be 120 nM.

Take `COC[C@@H](CC(C)C)NC(=O)c1cc2cc(OC)ccc2o1` [Example A7, (R)-5-methoxy-N-(1-methoxy-4-methylpentan-2-yl)benzofuran-2-carboxamide]: the EC50 under setting [1] was 460 nM. Still for that read-out and setting: under `CCCC(CCC)NC(=O)c1ccc2ncoc2c1` [Example A29, N-(heptan-4-yl)benzo[d]oxazole-6-carboxamide] stands 1910 nM.
